Results as given in the NIST ThermoML archive (doi:10.1021/acs.jced.5b00941).

Key:
[1] = mn = molality of the nth substance listed, in mol/kg; settings: 100 kPa, Liquid; for viscosity: Falling or rolling sphere viscometry; for mass density: Vibrating tube method
[2] = 100 kPa, Liquid, Falling or rolling sphere viscometry

O=C(O[C@@H]1Cc2c(O)cc(O)cc2O[C@@H]1c1cc(O)c(O)c(O)c1)c1cc(O)c(O)c(O)c1 + O
[1]
Settings | mass density, 288.15 K [kg/m3] | mass density, 293.15 K [kg/m3] | mass density, 298.15 K [kg/m3] | mass density, 303.15 K [kg/m3] | mass density, 308.15 K [kg/m3] | viscosity, 288.15 K [mPa·s] | viscosity, 293.15 K [mPa·s] | viscosity, 298.15 K [mPa·s] | viscosity, 303.15 K [mPa·s] | viscosity, 308.15 K [mPa·s]
m1 = 0.0099 | 1000.71 | 999.804 | 998.637 | 997.228 | 995.598 | 1.148 | 1.014 | 0.906 | 0.815 | 0.739
m1 = 0.02 | 1002.36 | 1001.44 | 1000.26 | 998.831 | 997.195 | 1.158 | 1.021 | 0.911 | 0.82 | 0.744
m1 = 0.0298 | 1003.97 | 1003.04 | 1001.83 | 1000.39 | 998.752 | 1.171 | 1.034 | 0.92 | 0.827 | 0.75
m1 = 0.0399 | 1005.63 | 1004.68 | 1003.47 | 1002.01 | 1000.36 | 1.187 | 1.049 | 0.934 | 0.838 | 0.759
m1 = 0.0499 | 1007.26 | 1006.29 | 1005.05 | 1003.6 | 1001.92 | 1.203 | 1.062 | 0.945 | 0.849 | 0.769
m1 = 0.0601 | 1008.94 | 1007.93 | 1006.69 | 1005.22 | 1003.53 | 1.222 | 1.079 | 0.959 | 0.86 | 0.778

[Cl-].[Li+] [lithium chloride] + O
[1]
Settings | mass density, 288.15 K [kg/m3] | mass density, 293.15 K [kg/m3] | mass density, 298.15 K [kg/m3] | mass density, 303.15 K [kg/m3] | mass density, 308.15 K [kg/m3] | viscosity, 288.15 K [mPa·s] | viscosity, 293.15 K [mPa·s] | viscosity, 298.15 K [mPa·s] | viscosity, 303.15 K [mPa·s] | viscosity, 308.15 K [mPa·s]
m1 = 0.1 | 1001.51 | 1000.58 | 999.41 | 998.003 | 996.382 | 1.146 | 1.011 | 0.898 | 0.809 | 0.735
m1 = 0.2 | 1004 | 1003.06 | 1001.87 | 1000.45 | 998.848 | 1.154 | 1.019 | 0.909 | 0.818 | 0.743
m1 = 0.3 | 1006.34 | 1005.37 | 1004.17 | 1002.75 | 1001.13 | 1.169 | 1.033 | 0.921 | 0.83 | 0.753
m1 = 0.4 | 1008.37 | 1007.4 | 1006.19 | 1004.76 | 1003.15 | 1.183 | 1.045 | 0.932 | 0.84 | 0.762
m1 = 0.5 | 1011.06 | 1010.07 | 1008.81 | 1007.35 | 1005.79 | 1.201 | 1.061 | 0.948 | 0.853 | 0.774

[Cl-].[K+] [potassium chloride] + O
[1]
Settings | mass density, 288.15 K [kg/m3] | mass density, 293.15 K [kg/m3] | mass density, 298.15 K [kg/m3] | mass density, 303.15 K [kg/m3] | mass density, 308.15 K [kg/m3] | viscosity, 288.15 K [mPa·s] | viscosity, 293.15 K [mPa·s] | viscosity, 298.15 K [mPa·s] | viscosity, 303.15 K [mPa·s] | viscosity, 308.15 K [mPa·s]
m1 = 0.1 | 1003.85 | 1002.92 | 1001.71 | 1000.28 | 998.631 | 1.145 | 1.01 | 0.896 | 0.801 | 0.722
m1 = 0.2 | 1008.58 | 1007.58 | 1006.33 | 1004.85 | 1003.19 | 1.145 | 1.01 | 0.896 | 0.801 | 0.723
m1 = 0.3 | 1013.16 | 1012.13 | 1010.84 | 1009.34 | 1007.64 | 1.145 | 1.011 | 0.897 | 0.801 | 0.726
m1 = 0.4 | 1017.86 | 1016.77 | 1015.43 | 1013.89 | 1012.18 | 1.147 | 1.013 | 0.897 | 0.801 | 0.73
m1 = 0.5 | 1022.32 | 1021.2 | 1019.84 | 1018.27 | 1016.52 | 1.152 | 1.027 | 0.899 | 0.802 | 0.73

[Cl-].[Na+] [sodium chloride] + O
[1]
Settings | mass density, 288.15 K [kg/m3] | mass density, 293.15 K [kg/m3] | mass density, 298.15 K [kg/m3] | mass density, 303.15 K [kg/m3] | mass density, 308.15 K [kg/m3] | viscosity, 288.15 K [mPa·s] | viscosity, 293.15 K [mPa·s] | viscosity, 298.15 K [mPa·s] | viscosity, 303.15 K [mPa·s] | viscosity, 308.15 K [mPa·s]
m1 = 0.1 | 1003.32 | 1002.36 | 1001.15 | 999.711 | 998.058 | 1.146 | 1.011 | 0.892 | 0.804 | 0.73
m1 = 0.2 | 1007.43 | 1006.42 | 1005.14 | 1003.65 | 1001.98 | 1.149 | 1.016 | 0.901 | 0.812 | 0.738
m1 = 0.3 | 1011.33 | 1010.27 | 1008.96 | 1007.44 | 1005.73 | 1.151 | 1.019 | 0.91 | 0.82 | 0.745
m1 = 0.4 | 1015.65 | 1014.53 | 1013.16 | 1011.6 | 1009.85 | 1.158 | 1.026 | 0.917 | 0.827 | 0.751
m1 = 0.5 | 1019.41 | 1018.24 | – | 1015.24 | 1013.48 | 1.165 | 1.033 | 0.925 | 0.834 | 0.76

O [water]
[2]
Settings | viscosity [mPa·s]
288.15 K | 1.145
293.15 K | 1.01
298.15 K | 0.896
303.15 K | 0.801
308.15 K | 0.721
